Assay results reported in ChEMBL document CHEMBL5506058, “Discovery of Quinazoline and Quinoline-Based Small Molecules as Utrophin Upregulators via AhR Antagonism for the Treatment of Duchenne Muscular Dystrophy” (J Med Chem, 2024).

What was measured:
[1] = Upregulation of utrophin expression in mouse C2C12 cells assessed as fold increase at 800 nM measured after 72 hrs by In-cell ELISA method; assay type: functional
C2C12 = assay: Cytotoxicity against mouse C2C12 cells assessed as reduction in cell viability at 0.78 to 100 uM measured after 24 hrs by MTT assay; assay type: toxicity, cell-based; settings: c2c12, 24 h, dose 0.78-100 µM

Row | SMILES | fold change (FC) [1] | Activity (C2C12)
1 | CS(=O)(=O)c1ccc2nc(Nc3ccc(F)cc3)ncc2c1 | 1.06 | Toxic
2 | COc1cc(CNc2ncc3cc(S(C)(=O)=O)ccc3n2)cc(OC)c1 | 1.67 | Toxic
3 | CS(=O)(=O)c1ccc2nc(Nc3ccc(C(F)(F)F)cc3)ccc2c1 | 0.93 | Toxic
4 | CCS(=O)(=O)c1ccc2nc(NCc3ccc(OC)cc3)ncc2c1 | 1.01 | Toxic
5 | CS(=O)(=O)c1ccc2nc(Nc3ccc(O)cc3)ncc2c1 | 1.06 | Toxic
6 | CCS(=O)(=O)c1ccc2nc(Nc3ccc(C(F)(F)F)cc3)ncc2c1 | 1.25 | Toxic
7 | CS(=O)(=O)c1ccc2nc(NCc3ccc(C(F)(F)F)cc3)ncc2c1 | 1.27 | Toxic
8 | CS(=O)(=O)c1ccc2nc(Nc3cc(O)cc(O)c3)ccc2c1 | 1.08 | Toxic
9 | CCS(=O)(=O)c1ccc2nc(NCc3ccc(C(C)(C)C)cc3)ncc2c1 | 1.07 | Toxic
10 | CCS(=O)(=O)c1ccc2nc(Nc3ccc(O)cc3)ncc2c1 | 1.08 | Toxic
11 | CCS(=O)(=O)c1ccc2nc(Nc3ccc4c(c3)OCO4)ncc2c1 | 0.6 | Toxic
12 | CCS(=O)(=O)c1ccc2nc(NCc3cc(OC)cc(OC)c3)ccc2c1 | 1.42 | Toxic
13 | CS(=O)(=O)c1ccc2nc(Nc3ccc(C(F)(F)F)cc3)ncc2c1 | 1.06 | Toxic
14 | CCS(=O)(=O)c1ccc2nc(Nc3ccc(C(C)(C)C)cc3)ccc2c1 | 0.93 | Toxic
15 | CCS(=O)(=O)c1ccc2nc(NCc3cc(OC)cc(OC)c3)ncc2c1 | 1.62 | Toxic
16 | CCS(=O)(=O)c1ccc2nc(Nc3ccc(F)cc3)ncc2c1 | 1.23 | Toxic
17 | CCS(=O)(=O)c1ccc2nc(NCc3ccc(OC)cc3)ccc2c1 | 0.89 | Toxic
18 | CCS(=O)(=O)c1ccc2nc(NCc3ccncc3)ccc2c1 | 1.73 | Toxic
19 | CCS(=O)(=O)c1ccc2nc(NCc3ccc(O)cc3)ncc2c1 | 1.12 | Toxic
20 | COc1cc(CNc2ccc3cc(S(C)(=O)=O)ccc3n2)cc(OC)c1 | 1.26 | Toxic

Row | SMILES | fold change (FC) [1] | Activity (C2C12)
21 | CC(C)(C)c1ccc(CNc2ncc3cc(S(C)(=O)=O)ccc3n2)cc1 | 1.19 | Toxic
22 | CCS(=O)(=O)c1ccc2nc(NCc3ccc4c(c3)OCO4)ccc2c1 | 0.98 | Toxic
23 | CCS(=O)(=O)c1ccc2nc(NCc3ccc(C(F)(F)F)cc3)ccc2c1 | 1.16 | Toxic
24 | CS(=O)(=O)c1ccc2nc(Nc3ccc(O)cc3)ccc2c1 | 1.03 | Toxic
25 | CCS(=O)(=O)c1ccc2nc(Nc3ccc(OC)cc3)ccc2c1 | 1.09 | Toxic
26 | CS(=O)(=O)c1ccc2nc(NCc3ccc(O)cc3)ncc2c1 | 1.09 | Toxic
27 | CS(=O)(=O)c1ccc2nc(Nc3ccc(F)cc3)ccc2c1 | 0.93 | Toxic
28 | CCS(=O)(=O)c1ccc2nc(NCc3ccncc3)ncc2c1 | 1.77 | Toxic
29 | CS(=O)(=O)c1ccc2nc(Nc3ccc4c(c3)OCO4)ccc2c1 | 1 | Toxic
30 | CCS(=O)(=O)c1ccc2nc(Nc3ccc(OC)cc3)ncc2c1 | 1.09 | Toxic
31 | CCS(=O)(=O)c1ccc2nc(Nc3ccc(F)cc3)ccc2c1 | 0.98 | Toxic
32 | CCS(=O)(=O)c1ccc2nc(Nc3cc(O)cc(O)c3)ccc2c1 | 1.02 | Toxic
33 | CS(=O)(=O)c1ccc2nc(NCc3ccncc3)ccc2c1 | 1.42 | Toxic
34 | CCS(=O)(=O)c1ccc2nc(NCc3ccc(O)cc3)ccc2c1 | 0.98 | Toxic
35 | COc1ccc(CNc2ncc3cc(S(C)(=O)=O)ccc3n2)cc1 | 1.11 | Non-Toxic
36 | CCS(=O)(=O)c1ccc2nc(Nc3cc(OC)cc(OC)c3)ncc2c1 | 1.52 | Toxic
37 | CS(=O)(=O)c1ccc2nc(NCCc3cc4ccccc4[nH]3)ncc2c1 | 1.81 | Toxic
38 | CCS(=O)(=O)c1ccc2nc(Nc3cc(OC)cc(OC)c3)ccc2c1 | 1.17 | Toxic
39 | CCS(=O)(=O)c1ccc2nc(NCc3ccc4c(c3)OCO4)ncc2c1 | 0.91 | Toxic
40 | CCS(=O)(=O)c1ccc2nc(NCCc3cc4ccccc4[nH]3)ncc2c1 | 1.73 | Toxic

Row | SMILES | fold change (FC) [1] | Activity (C2C12)
41 | CS(=O)(=O)c1ccc2nc(NCc3ccc(C(F)(F)F)cc3)ccc2c1 | 1.27 | Toxic
42 | CS(=O)(=O)c1ccc2nc(NCCc3cc4ccccc4[nH]3)ccc2c1 | 1.78 | Toxic
43 | COc1cc(Nc2ncc3cc(S(C)(=O)=O)ccc3n2)cc(OC)c1 | 1.6 | Toxic
44 | CS(=O)(=O)c1ccc2cnc(NCc3ccc(C(F)(F)F)cc3)nc2c1 | 1.8 | Toxic
45 | CCS(=O)(=O)c1ccc2nc(NCc3ccc(F)cc3)ccc2c1 | 1.2 | Toxic
46 | CCS(=O)(=O)c1ccc2cnc(NCc3ccc(F)cc3)nc2c1 | 0.67 | Toxic
47 | CC(C)(C)c1ccc(Nc2ccc3cc(S(C)(=O)=O)ccc3n2)cc1 | 0.61 | Toxic
48 | CCS(=O)(=O)c1ccc2nc(Nc3ccc(C(C)(C)C)cc3)ncc2c1 | 1.13 | Toxic
49 | CS(=O)(=O)c1ccc2nc(NCc3ccc(O)cc3)ccc2c1 | 1.07 | Toxic
50 | CS(=O)(=O)c1ccc2nc(NCc3ccc4c(c3)OCO4)ncc2c1 | 0.92 | Toxic
51 | CCS(=O)(=O)c1ccc2nc(NCc3ccc(C(C)(C)C)cc3)ccc2c1 | 0.9 | Toxic
52 | CS(=O)(=O)c1ccc2nc(Nc3ccc4c(c3)OCO4)ncc2c1 | 0.92 | Toxic
53 | CS(=O)(=O)c1ccc2cnc(NCc3ccc(F)cc3)nc2c1 | 0.95 | Toxic
54 | COc1cc(Nc2ccc3cc(S(C)(=O)=O)ccc3n2)cc(OC)c1 | 1.32 | Toxic
55 | CCS(=O)(=O)c1ccc2nc(Nc3ccc4c(c3)OCO4)ccc2c1 | 0.98 | Toxic
56 | COc1ccc(Nc2ncc3cc(S(C)(=O)=O)ccc3n2)cc1 | 1.05 | Toxic
57 | COc1ccc(CNc2ccc3cc(S(C)(=O)=O)ccc3n2)cc1 | 0.94 | Toxic
58 | CCS(=O)(=O)c1ccc2nc(NCc3ccc(F)cc3)ncc2c1 | 1.4 | Toxic
